Measurements from patent US11939314B2, “Quinolin-2-one derivatives” (MERCK PATENT GMBH, priority 2016, dated 2024).

Key:
[1] = biological target: T1, PDGFRalpha(V561D) (Homo sapiens, UniProt P16234, V561D); test: PDGFRalpha(V561D) assay; assay type: biochemical; settings: recombinant human PDGFRalpha aa 550-end, 200 μM ATP, 1.4E-06 means 1.4×10^−6, read-out: Inhibition (IC50) of PDGFRα (V561D)
T1 construct: recombinant human PDGFRalpha, amino acids 550end containing the V561 D mutation; 6His (N)
T1 sequence (P16234 550-1089 V561D): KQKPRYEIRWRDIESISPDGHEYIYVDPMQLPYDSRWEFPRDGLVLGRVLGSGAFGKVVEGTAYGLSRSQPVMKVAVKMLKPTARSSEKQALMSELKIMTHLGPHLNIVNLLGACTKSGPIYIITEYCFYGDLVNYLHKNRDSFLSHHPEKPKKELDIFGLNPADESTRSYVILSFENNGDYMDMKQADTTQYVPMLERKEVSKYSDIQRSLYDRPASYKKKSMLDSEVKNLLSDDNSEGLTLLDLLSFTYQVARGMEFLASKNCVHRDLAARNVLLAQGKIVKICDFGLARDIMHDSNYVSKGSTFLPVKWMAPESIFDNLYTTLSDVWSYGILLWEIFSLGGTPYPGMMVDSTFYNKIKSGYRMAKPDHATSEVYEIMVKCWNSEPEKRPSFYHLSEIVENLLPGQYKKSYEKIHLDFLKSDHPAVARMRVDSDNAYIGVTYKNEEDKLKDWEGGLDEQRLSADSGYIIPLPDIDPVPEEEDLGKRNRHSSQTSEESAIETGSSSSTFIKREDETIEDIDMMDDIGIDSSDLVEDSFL
How it was run: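 Radiometric filter-binding assay: substrate phosphorylation by recombinant N-His-tagged human PDGFRα 550-end V561D was quenched with 3% phosphoric acid after 40 min at room temperature, then counted.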

[2] = biological target: T2, c-Kit(V654A) (Homo sapiens, UniProt P10721, V654A); test: c-Kit(V654A) assay; assay type: biochemical; settings: recombinant human c-Kit aa 544-end, 200 μM ATP, 1.4E-06 means 1.4×10^−6, read-out: Inhibition (IC50) of c-KIT (V654A)
T2 construct: amino acids 544-end containing the V654A mutation; GST (N)
T2 sequence (P10721 544-976 V654A): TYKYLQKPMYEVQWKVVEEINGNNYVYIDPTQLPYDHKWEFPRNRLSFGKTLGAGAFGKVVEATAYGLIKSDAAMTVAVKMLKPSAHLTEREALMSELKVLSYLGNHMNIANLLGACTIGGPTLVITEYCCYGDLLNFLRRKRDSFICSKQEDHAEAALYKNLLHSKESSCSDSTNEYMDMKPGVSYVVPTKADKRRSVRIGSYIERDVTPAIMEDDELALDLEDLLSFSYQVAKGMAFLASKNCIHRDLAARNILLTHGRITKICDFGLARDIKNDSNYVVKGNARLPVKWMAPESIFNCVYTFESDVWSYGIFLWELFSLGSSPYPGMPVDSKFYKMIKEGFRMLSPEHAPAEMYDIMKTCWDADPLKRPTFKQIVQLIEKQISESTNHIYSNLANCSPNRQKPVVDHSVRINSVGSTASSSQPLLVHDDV
How it was run: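 Radiometric filter-binding read-out: substrate 33P incorporation counted by scintillation after P30 filtermat washes in 75 mM phosphoric acid and methanol. Enzyme: N-GST recombinant human c-Kit aa 544-end carrying V654A.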

| SMILES | IC50 [1] [nM] | IC50 [2] [nM] |
| --- | --- | --- |
| O=C(c1ccc(-n2cc(-c3cc4cc(Cl)ccc4[nH]c3=O)nn2)cc1)N1CCC2(CC1)COC2 [A256, 6-chloro-3-{1-[4-(2-oxa-7-aza-spiro[3.5]nonane-7-carbonyl)-phenyl]-1H-[1,2,3]triazol-4-yl}-1H-quinolin-2-one] | 4.3 | 27 |
| O=C(c1ccc(-n2cc(-c3cc4cc(Cl)ccc4[nH]c3=O)nn2)cc1)N1CCC2(COC2)C1 [A257, 6-chloro-3-{1-[4-(2-oxa-6-aza-spiro[3.4]octane-6-carbonyl)-phenyl]-1H-[1,2,3]triazol-4-yl}-1H-quinolin-2-one] | 3.7 | 27 |
| O=C(c1ccc(-n2cc(-c3cc4cc(Cl)ccc4[nH]c3=O)nn2)cc1)N1CC2(COC2)C1 [A258, 6-chloro-3-{1-[4-(2-oxa-6-aza-spiro[3.3]heptane-6-carbonyl)-phenyl]-1H-[1,2,3]triazol-4-yl}-1H-quinolin-2-one] | 86 | 47 |
| COCCO[C@H]1CCN(C(=O)c2ccc(-n3cc(-c4cc5cc(Cl)ccc5[nH]c4=O)nn3)cc2)C1 [A259, 6-chloro-3-(1-{4-[(S)-3-(2-methoxy-ethoxy)-pyrrolidine-1-carbonyl]-phenyl}-1H-[1,2,3]triazol-4-yl)-1H-quinolin-2-one] | 8.4 | 57 |
| COCCO[C@@H]1CCN(C(=O)c2ccc(-n3cc(-c4cc5cc(Cl)ccc5[nH]c4=O)nn3)cc2)C1 [A260, 6-chloro-3-(1-{4-[(R)-3-(2-methoxy-ethoxy)-pyrrolidine-1-carbonyl]-phenyl}-1H-[1,2,3]triazol-4-yl)-1H-quinolin-2-one] | 100 | 51 |
| COCCO[C@@H]1CCN(C(=O)c2ccc(-n3cc(-c4cc5cc(F)ccc5[nH]c4=O)cn3)cc2)C1 [A261, 6-fluoro-3-(1-{4-[(R)-3-(2-methoxy-ethoxy)-pyrrolidine-1-carbonyl]-phenyl}-1H-pyrazol-4-yl)-1H-quinolin-2-one] | 37 | 44 |

Further lines, results first:

| IC50 [1] [nM] | IC50 [2] [nM] | SMILES |
| --- | --- | --- |
| 400 | 160 | COCCO[C@H]1CCN(C(=O)c2ccc(-n3cc(-c4cc5cc(F)ccc5[nH]c4=O)nn3)cc2)C1 [A251, 6-fluoro-3-(1-{4-[(S)-3-(2-methoxy-ethoxy)-pyrrolidine-1-carbonyl]-phenyl}-1H-[1,2,3]triazol-4-yl)-1H-quinolin-2-one] |
| 93 | 98 | COCCO[C@@H]1CCN(C(=O)c2ccc(-n3cc(-c4cc5cc(F)ccc5[nH]c4=O)nn3)cc2)C1 [A252, 6-fluoro-3-(1-{4-[(R)-3-(2-methoxy-ethoxy)-pyrrolidine-1-carbonyl]-phenyl}-1H-[1,2,3]triazol-4-yl)-1H-quinolin-2-one] |
| 21 | 44 | COC[C@@H]1CCCN1C(=O)c1ccc(-n2cc(-c3cc4cc(Cl)ccc4[nH]c3=O)nn2)cc1 [A253, 6-chloro-3-{1-[4-((S)-2-methoxymethyl-pyrrolidine-1-carbonyl)-phenyl]-1H-[1,2,3]triazol-4-yl}-1H-quinolin-2-one] |
| 24 | 57 | CN(C)C1CCN(C(=O)c2ccc(-n3cc(-c4cc5cc(Cl)ccc5[nH]c4=O)nn3)cc2)C1 (stereo not drawn) [A254, 6-chloro-3-{1-[4-(3-dimethylamino-pyrrolidine-1-carbonyl)-phenyl]-1H-[1,2,3]triazol-4-yl}-1H-quinolin-2-one] |
| 2.6 | 22 | O=C(c1ccc(-n2cc(-c3cc4cc(Cl)ccc4[nH]c3=O)nn2)cc1)N1CCCCC1CO (stereo not drawn) [A255, 6-chloro-3-{1-[4-(2-hydroxymethyl-piperidine-1-carbonyl)-phenyl]-1H-[1,2,3]triazol-4-yl}-1H-quinolin-2-one] |
| 110 | 94 | NC(=O)[C@H]1CCCN1C(=O)c1ccc(-n2cc(-c3cc4cc(F)ccc4[nH]c3=O)nn2)cc1 [A262, (R)-1-{4-[4-(6-fluoro-2-oxo-1,2-dihydro-quinolin-3-yl)-[1,2,3]triazol-1-yl]-benzoyl}-pyrrolidine-2-carboxylic acid amide] |
